Assays:
LLC cells = experiment: LLC tumor growth in WT mice, anti-PD-L1 antibody and/or CD45 inhibitor; format: in vivo, mouse; settings: young WT mice; for tumor growth: CD45 inhibitor (3 mg/kg i.p., from day 7, three times) in combination with anti-PD-L1 antibody (2 mg/kg, days 7, 13, 19), LLC 2×10^6; for inhibitory effect against LLC tumor growth: CD45 inhibitor alone
Procedure: (§1) CD45 inhibition (FIG. 12): 2-(4-acetylanilino)-3-chloronaphthoquinone (211) (530197, EDM Millipore) (12) (3 mg/kg) or N-(9,10-dioxo-9,10-dihydrophenanthren-2-yl)-2,2-dimethylpropionamide (PTP) (540215, Sigma-Aldrich) (13) (3 mg/kg) was administered intraperitoneally to mice before tumor cell inoculation or 5 or 7 days after tumor cell inoculation. MC38 cells (5×10^5 or 1×10^6) or LLC cells (2×10^6) were intradermally inoculated into the right flank of mice (day 0). Seven days after LLC cell inoculation (day 7), mice received intraperitoneal administration of anti-PD-L1 antibody (clone 1-111A.4) (2 mg/kg). Administration of this anti-PD-L1 antibody was repeated 3 times at an interval of 6 days (on days 7, 13, and 19). Tumor size was measured with calipers, and tumor volume was calculated using the following formula: π (length×breadth×height)/6.
LLC cells (2×10^6 cells/tumor) were i.d. inoculated into the right flank of young (1 to 2-month old) WT mice (FIG. 16A). After 7 days, therapy was started using anti-PD-L1 antibody alone or in combination with CD45 inhibitor (211 or PTP) to examine tumor growth (FIG. 16A). […] Further, a therapeutic effect of using CD45 inhibitor alone was examined under similar conditions.

[1] = test system: MC38 murine colon adenocarcinoma cells; experiment: MC38 tumor growth in PD-1 KO mice given CD45 inhibitor; format: in vivo, mouse; settings: for tumor volume: PD-1 KO mice (2-month old), vs vehicle
Procedure: as §1
CD45 inhibitor (211) was administered intraperitoneally at 3 mg/kg to PD-1 KO mice (2-month old) once 3 days before inoculation of MC38 murine colon adenocarcinoma cells (preadministration) or 3 times 5 days after inoculation of MC38 cells (postadministration) (FIG. 13A and B). MC38 cells were intradermally inoculated into the right flank of miceat 1×10^6 cells/tumor.
CD45 inhibitor (211) was administered intraperitoneally at 3 mg/kg to young (1 to 2-month old) or aged (14 to 16-month old) PD-1 KO mice […]. Three days after administration of 211, MC38 cells were intradermally inoculated into the right flank of mice at 5×10^5 cells/tumor, followed by monitoring tumor growth.

Structure (SMILES): CC(C)(C)C(=O)Nc1ccc2c(c1)C(=O)C(=O)c1ccccc1-2 [PTP, N-(9,10-dioxo-9,10-dihydrophenanthren-2-yl)-2,2-dimethylpropionamide]
- tumor growth (LLC cells): significantly inhibited
- inhibitory effect against LLC tumor growth (LLC cells): significant inhibitory effect was not shown

Structure (SMILES): CC(=O)c1ccc(NC2=C(Cl)C(=O)c3ccccc3C2=O)cc1 [compound 211, 2-(4-acetylanilino)-3-chloronaphthoquinone]
- tumor growth ([1]; aged (14 to 16-month old) PD-1 KO mice, 3 mg/kg i.p. 3 days before MC38 (5×10^5) inoculation): strongly inhibited
- tumor volume ([1]; postadministration: 3 mg/kg i.p. 3 times from day 5 after MC38 (1×10^6) inoculation): significantly reduced
- tumor volume ([1]; preadministration: 3 mg/kg i.p. once 3 days before MC38 (1×10^6) inoculation): significantly reduced
- tumor growth (LLC cells): significantly inhibited
- inhibitory effect against LLC tumor growth (LLC cells): significant inhibitory effect was not shown
